Reference: patent publication US7745619B2, “Vinca derivatives” (priority 2003, dated 2010)

Legend:
Assay type in all cases: cell-based
BT-549 = assay: NCI 60-cell line growth inhibition assay: BT-549; details: Homo sapiens, Breast, read-out: GI50
HS 578T = assay: NCI 60-cell line growth inhibition assay: HS 578T; details: Homo sapiens; Breast, HS 578T; read-out: GI50
MCF7 = assay: NCI 60-cell line growth inhibition assay: MCF7; details: Homo sapiens, Breast, read-out: GI50
MDA-MB-231/ATCC = assay: NCI 60-cell line growth inhibition assay: MDA-MB-231/ATCC; details: Homo sapiens; Breast, MDA-MB-231/ATCC; read-out: GI50
MDA-MB-435 = assay: NCI 60-cell line growth inhibition assay: MDA-MB-435; details: Homo sapiens, Breast, read-out: GI50
NCI/ADR-RES = details: Homo sapiens, Breast, read-out: GI50
SF-295 = assay: NCI 60-cell line growth inhibition assay: SF-295; details: Homo sapiens, CNS, read-out: GI50
SF-539 = assay: NCI 60-cell line growth inhibition assay: SF-539; details: Homo sapiens; CNS, SF-539; read-out: GI50
SNB-19 = assay: NCI 60-cell line growth inhibition assay: SNB-19; details: Homo sapiens, CNS, read-out: GI50
SNB-75 = assay: NCI 60-cell line growth inhibition assay: SNB-75; details: Homo sapiens, CNS, read-out: GI50
U251 = assay: NCI 60-cell line growth inhibition assay: U251; details: Homo sapiens, U-251; CNS, U251; read-out: GI50
COLO 205 = assay: NCI 60-cell line growth inhibition assay: COLO 205; details: Homo sapiens, Colon, read-out: GI50
HCC-2998 = assay: NCI 60-cell line growth inhibition assay: HCC-2998; details: Homo sapiens; Colon, HCC-2998; read-out: GI50
HCT-116 = assay: NCI 60-cell line growth inhibition assay: HCT-116; details: Homo sapiens, Colon, read-out: GI50
HCT-15 = assay: NCI 60-cell line growth inhibition assay: HCT-15; details: Homo sapiens, Colon, read-out: GI50
HT29 = assay: NCI 60-cell line growth inhibition assay: HT29; details: Homo sapiens, HT-29; Colon, HT29; read-out: GI50
KM12 = assay: NCI 60-cell line growth inhibition assay: KM12; details: Homo sapiens, Colon, read-out: GI50
SW-620 = assay: NCI 60-cell line growth inhibition assay: SW-620; details: Homo sapiens, Colon, read-out: GI50
K-562 = assay: NCI 60-cell line growth inhibition assay: K-562; details: Homo sapiens, K562; Leukemia, K-562; read-out: GI50
MOLT-4 = assay: NCI 60-cell line growth inhibition assay: MOLT-4; details: Homo sapiens, Leukemia, read-out: GI50
LOX IMVI = assay: NCI 60-cell line growth inhibition assay: LOX IMVI; details: Homo sapiens, Melanoma, read-out: GI50
M14 = assay: NCI 60-cell line growth inhibition assay: M14; details: Homo sapiens, Melanoma, read-out: GI50
MALME-3M = assay: NCI 60-cell line growth inhibition assay: MALME-3M; details: Homo sapiens; Melanoma, MALME-3M; read-out: GI50
SK-MEL-2 = assay: NCI 60-cell line growth inhibition assay: SK-MEL-2; details: Homo sapiens, Melanoma, read-out: GI50
SK-MEL-5 = assay: NCI 60-cell line growth inhibition assay: SK-MEL-5; details: Homo sapiens, Melanoma, read-out: GI50
UACC-257 = assay: NCI 60-cell line growth inhibition assay: UACC-257; details: Homo sapiens, Melanoma, read-out: GI50
UACC-62 = assay: NCI 60-cell line growth inhibition assay: UACC-62; details: Homo sapiens, Melanoma, read-out: GI50
A549/ATCC = assay: NCI 60-cell line growth inhibition assay: A549/ATCC; details: Homo sapiens; Non-Small Cell Lung, A549/ATCC; read-out: GI50
EKVX = assay: NCI 60-cell line growth inhibition assay: EKVX; details: Homo sapiens, Non-Small Cell Lung, read-out: GI50
HOP-62 = assay: NCI 60-cell line growth inhibition assay: HOP-62; details: Homo sapiens, Non-Small Cell Lung, read-out: GI50
HOP-92 = assay: NCI 60-cell line growth inhibition assay: HOP-92; details: Homo sapiens, Non-Small Cell Lung, read-out: GI50
NCI-H23 = details: Homo sapiens, Non-Small Cell Lung, read-out: GI50
NCI-H460 = details: Homo sapiens, Non-Small Cell Lung, read-out: GI50
NCI-H522 = details: Homo sapiens, Non-Small Cell Lung, read-out: GI50
OVCAR-3 = assay: NCI 60-cell line growth inhibition assay: OVCAR-3; details: Homo sapiens, Ovarian, read-out: GI50
OVCAR-4 = assay: NCI 60-cell line growth inhibition assay: OVCAR-4; details: Homo sapiens, Ovarian, read-out: GI50
OVCAR-5 = assay: NCI 60-cell line growth inhibition assay: OVCAR-5; details: Homo sapiens, Ovarian, read-out: GI50
OVCAR-8 = assay: NCI 60-cell line growth inhibition assay: OVCAR-8; details: Homo sapiens, Ovarian, read-out: GI50
SK-OV-3 = assay: NCI 60-cell line growth inhibition assay: SK-OV-3; details: Homo sapiens, Ovarian, read-out: GI50
DU-145 = assay: NCI 60-cell line growth inhibition assay: DU-145; details: Homo sapiens, Prostate, read-out: GI50
PC-3 = assay: NCI 60-cell line growth inhibition assay: PC-3; details: Homo sapiens, Prostate, read-out: GI50
786-0 = assay: NCI 60-cell line growth inhibition assay: 786-0; details: Homo sapiens, Renal, read-out: GI50
A498 = assay: NCI 60-cell line growth inhibition assay: A498; details: Homo sapiens, Renal
From the text: The following data in Table 4 summarize the growth inhibition properties of several compounds of the present invention against 60-human transformed cell lines.

ACHN = assay: NCI 60-cell line growth inhibition assay: ACHN; details: Homo sapiens, Renal, read-out: GI50
CAKI-1 = assay: NCI 60-cell line growth inhibition assay: CAKI-1; details: Homo sapiens, Renal, read-out: GI50
RXF 393 = assay: NCI 60-cell line growth inhibition assay: RXF 393; details: Homo sapiens, Renal, read-out: GI50
SN12C = assay: NCI 60-cell line growth inhibition assay: SN12C; details: Homo sapiens, Renal, read-out: GI50
TK-10 = assay: NCI 60-cell line growth inhibition assay: TK-10; details: Homo sapiens, Renal, read-out: GI50
UO-31 = assay: NCI 60-cell line growth inhibition assay: UO-31; details: Homo sapiens, Renal, read-out: GI50

With `C#Cc1ccc2[nH]c3c(c2c1)CCN1C[C@H](C[C@@](O)(CC)C1)C[C@]3(C(=O)OC)c1cc2c(cc1OC)N(C)[C@H]1[C@@](O)(C(=O)OC)[C@H](OC(C)=O)[C@]3(CC)C=CCN4CC[C@]21[C@@H]43` [Example 17, 12′-ethynylvinblastine] the GI50 (BT-549) was under 10 nM, the GI50 (HS 578T) was under 10 nM and the GI50 (MCF7) was under 10 nM. For the same compound, the GI50 (MDA-MB-231/ATCC) was under 10 nM, the GI50 (MDA-MB-435) was under 10 nM and the GI50 (NCI/ADR-RES) was 2090 nM. The GI50 (SF-295) was under 10 nM, the GI50 (SF-539) was under 10 nM and the GI50 (SNB-19) was under 10 nM. The GI50 (SNB-75) was under 10 nM, the GI50 (U251) was under 10 nM and the GI50 (COLO 205) was under 10 nM. For the same compound, the GI50 (HCC-2998) was under 10 nM, the GI50 (HCT-116) was under 10 nM and the GI50 (HCT-15) was 44 nM. It also gave a GI50 (HT29) of under 10 nM, a GI50 (KM12) of under 10 nM and a GI50 (SW-620) of under 10 nM. It also gave a GI50 (K-562) of 53.1 nM, a GI50 (MOLT-4) of under 10 nM and a GI50 (LOX IMVI) of under 10 nM. It also gave a GI50 (M14) of under 10 nM, a GI50 (MALME-3M) of under 10 nM and a GI50 (SK-MEL-2) of under 10 nM. For the same compound, the GI50 (SK-MEL-5) was under 10 nM, the GI50 (UACC-257) was 22400 nM and the GI50 (UACC-62) was under 10 nM. The GI50 (A549/ATCC) was 16.9 nM, the GI50 (EKVX) was under 10 nM and the GI50 (HOP-62) was under 10 nM. The GI50 (HOP-92) was 160 nM, the GI50 (NCI-H23) was under 10 nM and the GI50 (NCI-H460) was under 10 nM. The GI50 (NCI-H522) was under 10 nM, the GI50 (OVCAR-3) was under 10 nM and the GI50 (OVCAR-4) was 15.3 nM. The GI50 (OVCAR-5) was under 10 nM, the GI50 (OVCAR-8) was under 10 nM and the GI50 (SK-OV-3) was under 10 nM. For the same compound, the GI50 (DU-145) was under 10 nM, the GI50 (PC-3) was under 10 nM and the GI50 (786-0) was under 10 nM. For the same compound, the GI50 (A498) was under 10 nM, the GI50 (ACHN) was under 10 nM and the GI50 (CAKI-1) was 73.4 nM. The GI50 (RXF 393) was under 10 nM, the GI50 (SN12C) was under 10 nM and the GI50 (TK-10) was under 10 nM. It also gave a GI50 (UO-31) of 98.6 nM.
